Results on 14 compounds are retold here after US8026243B2, “[4,5′]Bipyrimidinyl-6,4′-diamine derivatives as protein kinase inhibitors” (Novartis AG, priority 2006, dated 2011).

Molecules are shown by their SMILES.

T1 sequence (P22607 whole entry, change not shown, the tested form may be a part): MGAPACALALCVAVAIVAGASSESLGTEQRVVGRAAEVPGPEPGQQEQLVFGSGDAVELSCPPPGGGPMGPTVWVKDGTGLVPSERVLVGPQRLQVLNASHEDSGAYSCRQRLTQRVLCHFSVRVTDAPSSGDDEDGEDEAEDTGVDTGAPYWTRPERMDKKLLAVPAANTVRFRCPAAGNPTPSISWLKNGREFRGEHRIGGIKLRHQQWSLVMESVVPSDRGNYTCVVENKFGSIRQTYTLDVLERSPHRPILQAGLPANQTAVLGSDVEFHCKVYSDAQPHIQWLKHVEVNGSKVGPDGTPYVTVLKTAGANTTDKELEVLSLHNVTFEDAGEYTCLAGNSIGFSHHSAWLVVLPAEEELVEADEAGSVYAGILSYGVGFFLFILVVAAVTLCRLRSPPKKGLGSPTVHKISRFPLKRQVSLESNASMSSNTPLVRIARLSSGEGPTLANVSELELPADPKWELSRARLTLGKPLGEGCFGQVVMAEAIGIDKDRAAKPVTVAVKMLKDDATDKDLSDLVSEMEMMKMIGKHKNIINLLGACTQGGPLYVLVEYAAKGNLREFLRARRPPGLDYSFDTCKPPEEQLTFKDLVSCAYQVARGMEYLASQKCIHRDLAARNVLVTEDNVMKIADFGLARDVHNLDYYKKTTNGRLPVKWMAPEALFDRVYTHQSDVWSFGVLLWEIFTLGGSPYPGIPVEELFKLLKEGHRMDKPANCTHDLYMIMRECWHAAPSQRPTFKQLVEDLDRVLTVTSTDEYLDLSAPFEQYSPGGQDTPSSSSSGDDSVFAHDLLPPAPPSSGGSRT

This assay concerns the target T1, Ba/F3-TEL-FGFR3 cells (Homo sapiens, UniProt P22607).
T1 construct: fused on or other part: The N-terminal oligomerising part of TEL (ETV6) is fused before the intracellular kinase part of FGFR3; P41212 (Transcription factor ETV6)
Put plainly: FGFR3 cellular assay: proliferation of transformed Ba/F3-TEL-FGFR3 cells (AlamarBlue). Type of assay: cell-based. The settings on record: 48 hours incubation, class symbols. An outline of the steps: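 Ba/F3-TEL-FGFR3 cells (5000/well) in RPMI 1640 with 10% FBS, exposed to twelve-point 1:3 compound dilutions for 48 h. Proliferation read by AlamarBlue (10% final, 4 h at 37 °C), fluorescence Ex530/Em580; IC50 from linear regression of percent inhibition.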
Take `COc1cc(Nc2ncncc2-c2cc(Nc3cc(CN4CCN(C)CC4)ccn3)ncn2)c(Cl)c(OC)c1` [Compound 39, N4′-(2-Chloro-3,5-dimethoxy-phenyl)-N6-[4-(4-methyl-piperazin-1-ylmethyl)-pyridin-2-yl]-[4,5′]bipyrimidinyl-6,4′-diamine]: the GI50 (in general, the concentration at which growth is held to half of that of the control) fell in the range of 100 to 250 nM.
The result for `COc1cc(OC)c(Cl)c(Nc2nc(C)ncc2-c2cc(Nc3ccc(CN4CCOCC4)cn3)ncn2)c1F` [Compound 91, N4′-(2-Chloro-6-fluoro-3,5-dimethoxy-phenyl)-2′-methyl-N6-(5-morpholin-4-ylmethyl-pyridin-2-yl)-[4,5′]bipyrimidinyl-6,4′-diamine] reads < 100 nM; that for `CCN1CCN(c2ccc(Nc3cc(-c4cncnc4Nc4c(F)c(OC)cc(OC)c4Cl)ncn3)nc2)CC1` [Compound 43, N4′-(2-Chloro-6-fluoro-3,5-dimethoxy-phenyl)-N6-[5-(4-ethyl-piperazin-1-yl)-pyridin-2-yl]-[4,5′]bipyrimidinyl-6,4′-diamine], < 100 nM; that for `COc1cc(OC)c(Cl)c(Nc2ncncc2-c2cc(Nc3ccc(CN4CCCCC4)cn3)ncn2)c1Cl` [Compound 22, N4′-(2,6-Dichloro-3,5-dimethoxy-phenyl)-N6-(5-piperidin-1-ylmethyl-pyridin-2-yl)-[4,5′]bipyrimidinyl-6,4′-diamine], < 100 nM.
The result for `COc1cc(C(N)=O)c(Cl)c(Nc2ncncc2-c2cc(Nc3ccc(CN4CCOCC4)cn3)ncn2)c1Cl` [Compound 26, 2,4-Dichloro-5-methoxy-3-[6-(5-morpholin-4-yl-methyl-pyridin-2-ylamino)-[4,5′]bipyrimidinyl-4′-ylamino]-benzamide] reads 250 to 500 nM; that for `CNC(=O)N1CCN(Cc2ccc(Nc3cc(-c4cncnc4Nc4c(Cl)c(OC)cc(OC)c4Cl)ncn3)nc2)CC1` [Compound 20, 4-{6-[4′-(2,6-Dichloro-3,5-dimethoxy-phenylamino)-[4,5′]bipyrimidinyl-6-ylamino]-pyridin-3-ylmethyl}-piperazine-1-carboxylic acid methylamide], < 100 nM.
The result for `CCN1CCN(Cc2ccc(NC(=O)c3cc(OC)c(Cl)c(Nc4ncncc4-c4cc(Nc5ccc(CN6CCOCC6)cn5)ncn4)c3Cl)cc2C(F)(F)F)CC1` [Compound 93, 2,4-dichloro-N-(4-((4-ethylpiperazin-1-yl)methyl)-3-(trifluoromethyl)phenyl)-5-methoxy-3-(6-(5-(morpholinomethyl)pyridin-2-ylamino)-4,5′-bipyrimidin-4′-ylamino)benzamide] reads < 100 nM.
On to `CCN1CCN(Cc2ccc(Nc3cc(-c4cncnc4Nc4c(C)c(OC)cc(OC)c4Cl)ncn3)nc2)CC1` [Compound 53, N4′-(2-Chloro-3,5-dimethoxy-6-methyl-phenyl)-N6-[5-(4-ethyl-piperazin-1-ylmethyl)-pyridin-2-yl]-[4,5′]bipyrimidinyl-6,4′-diamine], for which the 50% growth inhibitory concentration (GI50) was < 100 nM.
The result for `COc1cc(OC)c(Cl)c(Nc2ncncc2-c2cc(Nc3cccc(C(C)O)c3)ncn2)c1F` (centres unmarked) [Compound 77, 1-{3-[4′-(2-Chloro-6-fluoro-3,5-dimethoxy-phenylamino)-[4,5′]bipyrimidinyl-6-yl-amino]-phenyl}-ethanol] reads < 100 nM; that for `COc1cc(OC)c(Cl)c(Nc2ncncc2-c2cc(N)ncn2)c1Cl` [Compound 1, N4′-(2,6-Dichloro-3,5-dimethoxy-phenyl)-[4,5′]bipyrimidinyl-6,4′-diamine], 100 to 250 nM; that for `COc1cc(OC)c(Cl)c(Nc2ncncc2-c2cc(Nc3ccc(N4CCOCC4)cc3)ncn2)c1Cl` [Compound 11, N4′-(2,6-Dichloro-3,5-dimethoxy-phenyl)-N6-(4-morpholin-4-yl-phenyl)-[4,5′]bipyrimidinyl-6,4′-diamine], < 100 nM.
Consider `COc1cc(OC)c(Cl)c(Nc2ncncc2-c2cc(Nc3cc(CN4CCOCC4)ccn3)ncn2)c1Cl` [Compound 5, N4′-(2,6-Dichloro-3,5-dimethoxy-phenyl)-N6-(4-morpholin-4-ylmethyl-pyridin-2-yl)-[4,5′]bipyrimidinyl-6,4′-diamine], for which the GI50 was < 100 nM.
Compound `COc1cc(OC)c(Cl)c(Nc2ncncc2-c2cc(NCCN3CCN(C)CC3)ncn2)c1Cl` [Compound 14, N4′-(2,6-Dichloro-3,5-dimethoxy-phenyl)-N6-[2-(4-methyl-piperazin-1-yl)-ethyl]-[4,5′]bipyrimidinyl-6,4′-diamine] showed a GI50 of 250 to 500 nM.
Turning to `COc1cc(OC)c(Cl)c(Nc2ncncc2-c2cc(Nc3cc(CN4CCCC4)ccn3)ncn2)c1F` [Compound 60, N4′-(2-Chloro-6-fluoro-3,5-dimethoxy-phenyl)-N6-(4-pyrrolidin-1-ylmethyl-pyridin-2-yl)-[4,5′]bipyrimidinyl-6,4′-diamine], the GI50 is < 100 nM.
